Results: US12390470B2, “1-methylxanthine-based bioactive composition and method of use thereof” (Ingenious Ingredients, LP, priority 2021, dated 2025)

Legend:
male Swiss Albino mice = assay: Treadmill endurance test; assay type: in vivo
Description: (§1) Twenty-four 8-week-old male Swiss Albino mice were housed in an animal room at a constant temperature (22±3° C.) and humidity (30%-70%) under a 12:12 h light-dark cycle with standard laboratory diet (Purina 5L79, Rat and Mouse 18% protein; PMI Nutrition International, Brentwood, MO, USA). Distilled water was provided ad libitum. All animal experiments were reviewed and approved by the Institutional Animal Ethical Committee (IAEC) of Radiant Research Services Pvt. Ltd (Bangalore, India). All research was conducted in accordance with the guidelines of the committee for the purpose of control and supervision of experiments on animals.
After one week of acclimation, the animals were randomly divided by body weight into three groups (n=8 per group in each test) for oral treatment once a day, at approximately same time each day (±1 hour), for 28 consecutive days: (1) vehicle control or (2) 1-methylxanthine or (3) 1-methylxanthine plus paraxanthine. The dose administered to the mice was calculated using US Food and Drug Administration for human equivalence doses (HED), assuming a human weight of 60 kg. The following HED was used in this study: 100 mg 1-methylxanthine (Ingenious Ingredients, L.P Lewisville, TX, USA; mouse dose: 20.5 mg/kg bw/day), or 100 mg 1-methylxanthine (Ingenious Ingredients, L.P Lewisville, TX, USA; mouse dose: 20.5 mg/kg bw/day) plus 100 mg paraxanthine (ENFINITY™, Ingenious Ingredients, L.P Lewisville, TX, USA; mouse dose: 20.5 mg/kg bw/day). 0.5% Carboxy Methyl Cellulose sodium was used as vehicle and the test item formulations were prepared daily. Dosing was conducted via oral gavage using disposable polypropylene syringes with sterilized stainless steel gavage tubes. Food intake was monitored daily while water intake was ad libitum. BW was recorded weekly. […]
On 28th day of each respective treatment, all animals were subjected to a muscle endurance test. […] Distance traveled (cm) was measured as a marker of exercise performance.

[1] = system: Brain-derived neurotrophic factor (BDNF); assay: BDNF level in young and old rats; assay type: in vivo
Description: as §1, with “young (6-8 Week) and twenty-four old (14-16 Months)” for “8-week-old male”, “Wistar rats” for “mice”
After one week of acclimation, the animals were randomly divided by body weight and age into six groups (n=8 per group in each test) for oral treatment once a day, at approximately same time each day (±1 hour), for 10 consecutive days: (1) vehicle control or (2) 1-methylxanthine or (3) 1-methylxanthine plus paraxanthine. The dose administered to the rat was calculated using US Food and Drug Administration for human equivalence doses (HED), assuming a human weight of 60 kg. […] Food intake was monitored daily while water intake was ad libitum. […] Body weight was recorded weekly. […]

female wistar rats = conditions: rat, in vivo, 14 days
Description: An acute oral toxicity study of 1-Methylxanthine) was conducted in female wistar rats in accordance with OECD 423 guidelines. Rats were administered a single dose of 2,000 mg/kg orally and then observed individually for the first four hours, then over a period of 24 hours and once daily for 14 days. General behavior, adverse effects and mortality were observed throughout the experimental period. Body weights were recorded on test day 0 (prior to administration), day 3, day 7 and day 14. All the animals were necropsied and examined macroscopically. All the surviving animals had gained body weight by day 14 as compared to day 0. […] Based on the results, the median lethal dose of test substance in female rats after single oral treatment is 2,000 mg/kg body weight and is classified as category 5 and safe.

For `Cn1c(=O)[nH]c2nc[nH]c2c1=O` [1-methylxanthine, 1-Methyl-3H-purine-2,6-dione], the “Distance travelled on treadmill” value (male Swiss Albino mice; baseline) was 269.6±33.0 cm, the “changes in treadmill performance greater than control” value (male Swiss Albino mice; baseline to day 28) was 10.0% and the “Distance travelled on treadmill” value (male Swiss Albino mice; day 28, oral 20.5 mg/kg bw/day each, 28 days) was 1,641.3±74.6 cm. For the same compound, the BDNF levels ([1]; old rats) was 793.81 ± 33.85 pg/mL, the BDNF levels ([1]; young rats) was 869.04 ± 32.79 pg/mL and the toxicity classification (female wistar rats) was “category 5”. For the same compound, the median lethal dose (female wistar rats; po) was 2,000 mg/kg body weight.
